Reference: ChEMBL document CHEMBL1144866, “Surface descriptors for protein-ligand affinity prediction” (J Med Chem, 2003)

Assay: Inhibitory activity against glycogen phosphorylase, activity expressed as -logKi

-Log Ki | SMILES
4.347 | O=C(CCl)N[C@H]1O[C@H](CO)[C@@H](O)[C@H](O)[C@H]1O
3.854 | NC(=O)N[C@H]1O[C@H](CO)[C@@H](O)[C@H](O)[C@H]1O
4.027 | CCCC(=O)N[C@H]1O[C@H](CO)[C@@H](O)[C@H](O)[C@H]1O
3.004 | CC(=O)NCC(=O)N[C@H]1O[C@H](CO)[C@@H](O)[C@H](O)[C@H]1O
4.409 | CCC(=O)N[C@H]1O[C@H](CO)[C@@H](O)[C@H](O)[C@H]1O
4.495 | CC(=O)N[C@H]1O[C@H](CO)[C@@H](O)[C@H](O)[C@H]1O
4.357 | O=C(CBr)N[C@H]1O[C@@H](CO)[C@@H](O)[C@H](O)[C@@H]1O
3.432 | NCC(=O)N[C@H]1O[C@@H](CO)[C@@H](O)[C@H](O)[C@@H]1O
3.357 | NC(=O)C1OC(CO)C(O)C(O)C1O (configuration not stated)

The remaining lines, values behind:

SMILES | -Log Ki
COC(=O)N[C@]1(C(N)=O)O[C@H](CO)[C@@H](O)[C@H](O)[C@H]1O | 4.796
OCC1OC(CO)C(O)C(O)C1O (configuration not stated) | 2.824
O=C(N[C@H]1O[C@H](CO)[C@@H](O)[C@H](O)[C@H]1O)c1ccccc1 | 4.092
NN1C(=O)N[C@@]2(O[C@@H](CO)[C@@H](O)[C@H](O)[C@@H]2O)C1=O | 3.836
CNC(=O)C1OC(CO)C(O)C(O)C1O (configuration not stated) | 3.796
CS(=O)(=O)OCC1OC(CO)C(O)C(O)C1O (configuration not stated) | 2.319
NCC1OC(CO)C(O)C(O)C1O (stereo in doubt; form 1) | 1.462
NCC1OC(CO)C(O)C(O)C1O (stereo in doubt; form 2) | 1.775
